One assay concerns HT22 cells. As to the kind of experiment: Chemical ischemia (iodoacetic acid) in HT22 mouse hippocampal cells. Type of assay: cell-based. Also noted: key to In Vitro Ischemia, Mouse hippocampal cells: + = positive result or enzyme activation. The conditions noted are these: for Cell death caused by treatment of HT22 cells with 20 μM IAA: 20 μM iodoacetic acid for 2 hr, MTT after 24 hr. The procedure:
FIG. 2 illustrates the ability of invention compounds CNB-001 and J147 to protect nerve cells from chemical ischemia. HT22 cells were treated with 20 μM iodoacetic acid for 2 hr alone or in the presence of varying concentrations of CNB-001 or J147. % survival was confirmed by microscopy and measured after 24 hr by the MTT assay.
Most cell culture models of ischemia utilize primary cortical cultures that are exposed to some form of oxygen and glucose deprivation. While these assays may come closer to mimicking the in vivo conditions than assays employing neuronal cell lines, they have a number of problems that make them difficult to use for the routine screening of potential neuroprotective compounds. The most serious problem is that the condition needed to kill a fixed percentage of cells are highly variable from experiment to experiment, making it very difficult to get accurate values for neuroprotective activity. In order to circumvent this and other problems, a mouse nerve cell line was used in combination with chemical ischemia as a screen for potential neuroprotective drugs for ischemia. To induce chemical ischemia, iodoacetic acid (IAA), a well known, irreversible inhibitor of the glycolytic enzyme glyceraldehyde 3-phosphate dehydrogenase (G3PDH) (see B. S. Winkler et al., Modulation of the Pasteur effect in retinal cells: implications for understanding compensatory metabolic mechanisms, in Exp Eye Res 76 (2003) 715-723) was used in combination with the HT22 mouse hippocampal cell line. IAA has been used in a number of other studies to induce ischemia in nerve cells. The changes following IAA treatment of neural cells are very similar to changes which have been seen in animal models of CNS trauma and ischemia. These include alterations in membrane potential, breakdown of phospholipids, loss of ATP, and an increase in reactive oxygen species. A 2 hr treatment of the HT22 cells with 20 μM IAA induces over 90% cell death 20 hr later. […]

Assay [1] deals with Schaffer collateral CA1 pyramidal cell synapses in rat hippocampal slices. Put plainly: LTP induction in hippocampal slices. On the set-up: key to LTP: + = positive result or enzyme activation. The source says:
Hippocampal slices were exposed to J147 during the time indicated by the black bar. The field excitatory postsynaptic potential (fEPSP) slope is expressed as the percentage of the value immediately before the addition of J147.
The effect of J147 is dose-dependent. The hippocampal slices were untreated or exposed to J147 for the time indicated by the black bar, and weak tetanic stimulation was applied at time 0. The fEPSP slope is expressed as the percentage of the value immediately before the application of weak tetanic stimulation. FIG. 3B illustrates the time course of changes in the fEPSP slope.
To compare the data among the groups, the averages of the fEPSP slopes 30-60 min after tetanic stimulation were calculated as an index of LTP magnitude; the results are shown in FIG. 3C. All the data are the mean±SEM […] vs none.

The test system of a further assay is CaM Kinase II alpha. As to the kind of experiment: CaM Kinase II activation. The class given is cell-based. Also noted: key: + = positive result or enzyme activation. The procedure: Invention compounds have the ability to activate CaM Kinase II alpha, a key enzyme involved in memory formation.
To evaluate the ability of a test compound to activate CaM Kinase II alpha, HT22 hippocampal neurons or one week old cortical neurons from embryonic 18 day rats can be prepared according to published procedures (e.g., Soucek et al., Neuron 39:43-56 (2003) and Li et al., Neuron 19:453-463 (1997)). Thus, for example, suitable cells can be treated with 1-2 μM of an exemplary invention compound for a suitable amount of time (e.g., 15, 30, 60 or 120 minutes).
Cells are then lysed and applied to a suitable gel for separation (e.g., P81 phosphocellulose paper, polyacrylamide gel containing SDS, and the like). CaMKII activity can then be assayed using an antibody that recognizes phosphothreonine from both the alpha and beta chains of CaM Kinase II. Invention compounds promote an increase in CaMKII activity of 10% or greater.

The subject of another assay is Wistar rats. Put plainly: Novel object recognition task in rats. The class given is in vivo, rat. To be noted: for Recognition index, Mean: Wistar rats, n=8. How it is done: FIG. 6 illustrates the effect of galantamine, compounds CNB-001, J147, SK186 and SKI 87 on object recognition task in Wistar rats. The data represent mean±SEM. *p<0.05 compared with the vehicle control.
This model is based on the greater spontaneous exploration of a novel object, compared with a familiar object, shown by rodents (see Ennaceur and Delacour in Behav. Brain Res. 31:47 (1988)). Male Wister rats are assessed for cognitive ability in a test apparatus comprising an open-field arena placed in a sound-attenuated room under dimmed lighting. Images of the open-field are captured by digital camera, and viewed on a monitor in an adjoining room. Each rat is subjected to the procedure separately and care is taken to remove any olfactory/taste cues by cleaning the arena and test objects with alcohol between trials and rats.
Adult male Wistar rats were employed in all rat studies. Animals were placed in the experimental rooms at postnatal day 80 and assigned unique identification numbers (tail marked). Pairs were housed in polycarbonate cages with filter tops and acclimated for 3 days prior to commencing any studies. Animals were maintained in a 12 hour light/dark cycle with room temperature maintained at 22±2° C. with a relative humidity maintained approximately 50%. Food and water were provided ad libitum.
All animals were examined, handled, and weighed for a further two days prior to initiation of the study to assure adequate health and suitability and to minimize non-specific stress associated with manipulation. Each animal was randomly assigned across the treatment groups and balanced by cage numbers. The novel object recognition experiment was performed during the animal's light cycle phase. Drug treatments were balanced across days and animals were only used once
The following compounds were used for this study—Reference compound (Galantamine; 3 mg/kg) was dissolved in 0.9% saline and administered i.p. 1 hour pre-test at a dose volume of 1 ml/kg, and all test compounds were handled in solution, and were kept at −80° C. until use. All compounds were administered orally 60 min prior to training at a volume of 1 ml/kg body weight.
Following a 5-minute habituation period, each rat was placed into the test arena in the presence of two identical objects (plastic shapes). Each rat was placed facing the same direction at the same position in the arena, and the time spent actively exploring the objects during a 5-minute test period (T1) was recorded. The rat was returned to its home cage between tests. After 24 hours, each rat was again placed in the test arena for 5 minutes (T2) in the presence of one of the familiar objects and a novel object, and the time spent exploring both objects was again recorded. The presentation order and position of the objects (left/right) was randomized between rats to prevent bias from order or place preference. A preference index for each object, the ratio of the time spent exploring either the familiar object or the novel object over the total time spent exploring both objects (during retention session T2) was used to measure cognitive function.
Data were analyzed by a one-way analysis of variance (ANOVA) followed by post-hoc comparisons with Fisher Tests when appropriate. An effect was considered significant if p<0.05. Data in the following tables are presented as the mean and standard error to the mean.

The mark [2] stands for this setting: 5 mg/kg orally 60 min prior to training.
The mark [3] stands for this setting: 10 mg/kg orally 60 min prior to training.
[4] abbreviates: 25 mg/kg orally 60 min prior to training.

Consider `COc1cc(/C=C/c2cc(/C=C/c3ccc(O)c(OC)c3)n(-c3ccccc3)n2)ccc1O` [CNB-001], for which, in the assay with HT22 cells, the “In Vitro Ischemia, Mouse hippocampal cells” value is given as “+”. For the same compound, the “Cell death caused by treatment of HT22 cells with 20 μM IAA” value with HT22 cells is recorded as “can be prevented”. The LTP entry in assay [1] was “+”. In addition, the “CaMKinase II” value with CaM Kinase II alpha is listed as “+”. The entries for the “Recognition index, Mean” value in the assay with Wistar rats (setting [2]), in the assay with Wistar rats (setting [3]) and in the assay on Wistar rats (setting [4]) were 63.663, 77.964 and 45.226, respectively. For the same compound, the “Effect on recognition index” value with Wistar rats (10 mg/kg, versus vehicle, p<0.05) is “significantly increased”. In addition, the “Fisher's PLSD for Recognition index, Mean Diff. (*vehicle, treatment)” value is recorded as −11.741 in the assay with Wistar rats (vehicle versus 5 mg/kg oral), −26.042 in the assay with Wistar rats (vehicle versus 10 mg/kg oral) and 6.697 in the assay with Wistar rats (vehicle versus 25 mg/kg oral).
On to `COc1cccc(/C=N/N(C(=O)C(F)(F)F)c2ccc(C)cc2C)c1` [Compound J147], for which the “Cell death caused by treatment of HT22 cells with 20 μM IAA” value in the assay on HT22 cells is “can be prevented”. The LTP result in assay [1] is “+”. The “Induction of LTP” value in assay [1] (after a weak tetanic stimulation (15 pulses at 100 Hz), fEPSP slope) is given as “facilitate the induction of LTP”. Further, in assay [1] (fEPSP slope, J147 1 μM), the Basal synaptic transmission result is “does not affect basal synaptic transmission”. In addition, the “CaMKinase II” value in the assay on CaM Kinase II alpha is recorded as “+”. Also, the figures for the “Recognition index, Mean” value in the assay with Wistar rats (setting [2]), in the assay with Wistar rats (setting [3]) and in the assay on Wistar rats (setting [4]) were 63.053, 54.213 and 51.372, respectively. Besides, the “Fisher's PLSD for Recognition index, Mean Diff. (*vehicle, treatment)” value in the assay on Wistar rats (vehicle versus 5 mg/kg oral) is reported as −11.130; in the assay with Wistar rats (vehicle versus 10 mg/kg oral), −2.291; with Wistar rats (vehicle versus 25 mg/kg oral) it was “.550”.

The record behind these values is patent publication US8779002B2, “Methods for treating a variety of diseases and conditions, and compounds useful therefor” (Salk Institute for Biological Studies, priority 2007, dated 2014).
